Experimental data reported in the supplement of paper PMC10307832.

How the values were obtained:
Assay in all cases: relative viability (nuclei count vs DMSO), 5 days (fraction); higher = more cells survive
[1] = compound: C1CNCCC1C2=CC(=NN2)C3=CC=NC=C3 + C[C@@H](Oc1cc(-c2cnn(C3CCNCC3)c2)cnc1N)c1c(Cl)ccc(F)c1Cl [Crizotinib] (partner 1 µM)
Procedure, shortened: (§1)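 Relative viability equals treated-well nuclei counts divided by vehicle-well nuclei counts. Counts came from 4× images of lung cancer cell lines grown in 1536-well plates for 5 days after pin-tool dosing on the day after seeding. Dosing used one drug alone or a fixed anchor-drug dose plus five library-drug doses (not always all listed) in √10 steps, and values are medians of duplicate plates.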

[2] = compound: C1CNCCC1C2=CC(=NN2)C3=CC=NC=C3 + O=C(CCCCCCC(=O)Nc1ccccc1)NO [Vorinostat] (partner 1 µM)
Procedure, shortened: as §1

Tanzisertib + Navitoclax = compound: O[C@H]1CC[C@H](Nc2ncc3nc(Nc4c(F)cc(F)cc4F)n([C@H]4CCOC4)c3n2)CC1 [Tanzisertib] + CC1(C)CCC(c2ccc(Cl)cc2)=C(CN2CCN(c3ccc(C(=O)NS(=O)(=O)c4ccc(N[C@H](CCN5CCOCC5)CSc5ccccc5)c(S(=O)(=O)C(F)(F)F)c4)cc3)CC2)C1 [Navitoclax] (partner 0.5 µM)
Procedure, shortened: as §1

Tanzisertib + Olaparib = compound: O[C@H]1CC[C@H](Nc2ncc3nc(Nc4c(F)cc(F)cc4F)n([C@H]4CCOC4)c3n2)CC1 [Tanzisertib] + O=C(c1cc(Cc2n[nH]c(=O)c3ccccc23)ccc1F)N1CCN(C(=O)C2CC2)CC1 [Olaparib] (partner 8 µM)
Procedure, shortened: as §1

## A-427
[1]; first compound 0.08 µM
  relative viability: 0.874
[1]; first compound 0.8 µM
  relative viability: 0.93
[1]; first compound 2.53 µM
  relative viability: 0.944
[1]; first compound 8 µM
  relative viability: 0.846
[2]; first compound 0.08 µM
  relative viability: 0.842
[2]; first compound 0.8 µM
  relative viability: 0.982
[2]; first compound 2.53 µM
  relative viability: 0.891
[2]; first compound 8 µM
  relative viability: 0.762
Tanzisertib + Navitoclax; first compound 0.08 µM
  relative viability: 0.952
Tanzisertib + Navitoclax; first compound 0.253 µM
  relative viability: 0.938
Tanzisertib + Navitoclax; first compound 0.8 µM
  relative viability: 1.01
Tanzisertib + Navitoclax; first compound 2.53 µM
  relative viability: 0.86
Tanzisertib + Navitoclax; first compound 8 µM
  relative viability: 0.958
Tanzisertib + Olaparib; first compound 0.08 µM
  relative viability: 0.783
Tanzisertib + Olaparib; first compound 0.253 µM
  relative viability: 0.66
Tanzisertib + Olaparib; first compound 0.8 µM
  relative viability: 0.811
Tanzisertib + Olaparib; first compound 2.53 µM
  relative viability: 0.877
Tanzisertib + Olaparib; first compound 8 µM
  relative viability: 0.782
